Here are results for 2 compounds from patent EP0356894A1, “A novel glycopeptide antibiotic Decaplanin, a process for its production and its use as medicament” (priority 1988, dated 1990).

A short description of series [1]: acute toxicity, subcutaneous injection. It counts as in vivo. Particulars: 1000 mg/kg and 2000 mg/kg, injected subcutaneously, Swiss mice. From the text:
The acute toxicity of the compound in laboratory animals has been evaluated.

Series [2] is described as follows: acute toxicity, intravenous injection, rats. It counts as in vivo. Particulars: Wistar rats.
The next series concerns Gram-positive bacteria. The series can be described thus: minimum inhibitory concentration (MIC) determination. It counts as cell-based. To be noted: wide range of Gram-positive bacteria including enterococci and resistant clinical isolates; MIC values are in Table II (image).
Series [3] can be described thus: acute toxicity, intravenous injection, mice. It is filed as in vivo. To be noted: Swiss white mice.
Series [4] concerns Staphylococcus aureus E 710 (Methicillin resistant). The series can be described thus: in vivo antibacterial protection study in experimentally infected mice. To be noted: laboratory mice experimentally infected with Staphylococcus aureus E 710 (Methicillin resistant). From the text:
"In vivo" antibacterial protection studies

[5] abbreviates: i.v., end of the 14 day follow-up period.

Turning to `CN[C@H](CC(C)C)C(=O)N[C@H]1C(=O)N[C@@H](CC(N)=O)C(=O)N[C@H]2C(=O)N[C@H]3C(=O)N[C@H](C(=O)N[C@H](C(=O)O)c4cc(O)cc(O)c4-c4cc3ccc4O)[C@H](O)c3ccc(c(Cl)c3)Oc3cc2cc(c3O[C@@H]2O[C@H](CO)[C@@H](O)[C@H](O)[C@H]2O[C@H]2C[C@](C)(N)[C@H](O)[C@H](C)O2)Oc2ccc(cc2Cl)[C@H]1O` [vancomycin, reference compound], the “finding at the site of injection” value in series [1] is reported as “tissue necrosis was seen at the site of injection”.
Take Decaplanin: the “macroscopic examination on dissection” value in series [2] (setting [5]) and in series [3] (setting [5]) was “no morphological changes” throughout. In addition, the LD₅₀ entry in series [2] (intravenous injection (i.v.)) is “greater than 2,500 mg/kg”; in series [3] (intravenous injection (i.v.), 20160 min), “greater than 3000 mg/kg”. The “activity against Gram-positive bacteria” value with Gram-positive bacteria is “displays activity”. Further, the acute toxicity result in series [1] is “no acute toxicity was observed”. The “finding at the site of injection” value in series [1] was “no abnormalities were observed”. For the same compound, the “activity in the in vivo system” value in series [4] is “good activity”.
